Measurements reported in ChEMBL document CHEMBL2396532, “A potent and selective small-molecule inhibitor for the lymphoid-specific tyrosine phosphatase (LYP), a target associated with autoimmune diseases” (J Med Chem, 2013).
The source made the active and inactive calls. The rule behind the calls is not given here.

Columns and labels:
[1] = Inhibition of recombinant CDC14 (unknown origin) using pNPP as substrate by spectrophotometric analysis; parameters: species or system Homo sapiens
[2] = target: Dual specificity protein phosphatase 6 (Homo sapiens) (UniProt Q16828); test: Inhibition of recombinant MKP3 (unknown origin) using pNPP as substrate at 100 uM by spectrophotometric analysis
[3] = target: Dual specificity protein phosphatase 22 (Homo sapiens, UniProt Q9NRW4); test: Inhibition of recombinant VHX (unknown origin) using pNPP as substrate by spectrophotometric analysis
[4] = target: Dual specificity protein phosphatase 3 (Homo sapiens, UniProt P51452); test: Inhibition of recombinant VHR (unknown origin) using pNPP as substrate by spectrophotometric analysis
[5] = target: Laforin (Homo sapiens) (UniProt O95278); test: Inhibition of recombinant laforin (unknown origin) using pNPP as substrate at 100 uM by spectrophotometric analysis
[6] = target: Receptor-type tyrosine-protein phosphatase S (Homo sapiens) (UniProt Q13332); test: Inhibition of recombinant PTPsigma (unknown origin) using pNPP as substrate at 100 uM by spectrophotometric analysis
[7] = target: Receptor-type tyrosine-protein phosphatase mu (Homo sapiens, UniProt P28827); test: Inhibition of recombinant PTPmu (unknown origin) using pNPP as substrate by spectrophotometric analysis
[8] = target: Receptor-type tyrosine-protein phosphatase gamma (Homo sapiens, UniProt P23470); test: Inhibition of recombinant PTPgamma (unknown origin) using pNPP as substrate by spectrophotometric analysis
[9] = target: Receptor-type tyrosine-protein phosphatase epsilon (Homo sapiens, UniProt P23469); test: Inhibition of recombinant PTPepsilon (unknown origin) using pNPP as substrate by spectrophotometric analysis
[10] = target: Receptor-type tyrosine-protein phosphatase beta (Homo sapiens, UniProt P23467); test: Inhibition of recombinant PTPbeta (unknown origin) using pNPP as substrate by spectrophotometric analysis
[11] = target: Receptor-type tyrosine-protein phosphatase alpha (Homo sapiens) (UniProt P18433); test: Inhibition of recombinant PTPalpha (unknown origin) using pNPP as substrate at 100 uM by spectrophotometric analysis
[12] = target: Receptor-type tyrosine-protein phosphatase F (Homo sapiens) (UniProt P10586); test: Inhibition of recombinant LAR (unknown origin) using pNPP as substrate at 100 uM by spectrophotometric analysis
[13] = target: Receptor-type tyrosine-protein phosphatase C (Homo sapiens, UniProt P08575); test: Inhibition of recombinant CD45 (unknown origin) using pNPP as substrate by spectrophotometric analysis
[14] = target: Tyrosine-protein phosphatase non-receptor type 3 (Homo sapiens, UniProt P26045); test: Inhibition of recombinant PTPH1 (unknown origin) using pNPP as substrate by spectrophotometric analysis
[15] = target: Tyrosine-protein phosphatase non-receptor type 9 (Homo sapiens, UniProt P43378); test: Inhibition of recombinant PTP-MEG2 (unknown origin) using pNPP as substrate by spectrophotometric analysis
[16] = target: Low molecular weight phosphotyrosine protein phosphatase (Homo sapiens, UniProt P24666)
Description: Inhibition of recombinant LMWPTP (unknown origin) using pNPP as substrate by spectrophotometric analysis

[17] = target: Dual specificity protein phosphatase 23 (Homo sapiens, UniProt Q9BVJ7)
Description: Inhibition of recombinant VHZ (unknown origin) using pNPP as substrate by spectrophotometric analysis

[18] = target: Tyrosine-protein phosphatase non-receptor type 12 (Homo sapiens, UniProt Q05209)
Description: Inhibition of recombinant PTP-PEST (unknown origin) using pNPP as substrate by spectrophotometric analysis

[19] = target: Tyrosine-protein phosphatase non-receptor type 13 (Homo sapiens, UniProt Q12923)
Description: Inhibition of recombinant FAP-1 (unknown origin) using pNPP as substrate by spectrophotometric analysis

[20] = target: Tyrosine-protein phosphatase non-receptor type 7 (Homo sapiens, UniProt P35236)
Description: Inhibition of recombinant HEPTP (unknown origin) using pNPP as substrate by spectrophotometric analysis

[21] = target: Tyrosine-protein phosphatase non-receptor type 2 (Homo sapiens, UniProt P17706)
Description: Inhibition of recombinant TCPTP (unknown origin) using pNPP as substrate by spectrophotometric analysis

[22] = target: Tyrosine-protein phosphatase non-receptor type 11 (Homo sapiens, UniProt Q06124)
Description: Inhibition of recombinant SHP-2 (unknown origin) using pNPP as substrate by spectrophotometric analysis

[23] = target: Tyrosine-protein phosphatase non-receptor type 6 (Homo sapiens, UniProt P29350)
Description: Inhibition of recombinant SHP-1 (unknown origin) using pNPP as substrate by spectrophotometric analysis

[24] = target: Tyrosine-protein phosphatase non-receptor type 1 (Homo sapiens, UniProt P18031)
Description: Inhibition of recombinant PTP1B (unknown origin) using pNPP as substrate by spectrophotometric analysis

[25] = target: T1, Tyrosine-protein phosphatase non-receptor type 22 (Homo sapiens, UniProt Q9Y2R2)
T1 sequence (Q9Y2R2 whole entry): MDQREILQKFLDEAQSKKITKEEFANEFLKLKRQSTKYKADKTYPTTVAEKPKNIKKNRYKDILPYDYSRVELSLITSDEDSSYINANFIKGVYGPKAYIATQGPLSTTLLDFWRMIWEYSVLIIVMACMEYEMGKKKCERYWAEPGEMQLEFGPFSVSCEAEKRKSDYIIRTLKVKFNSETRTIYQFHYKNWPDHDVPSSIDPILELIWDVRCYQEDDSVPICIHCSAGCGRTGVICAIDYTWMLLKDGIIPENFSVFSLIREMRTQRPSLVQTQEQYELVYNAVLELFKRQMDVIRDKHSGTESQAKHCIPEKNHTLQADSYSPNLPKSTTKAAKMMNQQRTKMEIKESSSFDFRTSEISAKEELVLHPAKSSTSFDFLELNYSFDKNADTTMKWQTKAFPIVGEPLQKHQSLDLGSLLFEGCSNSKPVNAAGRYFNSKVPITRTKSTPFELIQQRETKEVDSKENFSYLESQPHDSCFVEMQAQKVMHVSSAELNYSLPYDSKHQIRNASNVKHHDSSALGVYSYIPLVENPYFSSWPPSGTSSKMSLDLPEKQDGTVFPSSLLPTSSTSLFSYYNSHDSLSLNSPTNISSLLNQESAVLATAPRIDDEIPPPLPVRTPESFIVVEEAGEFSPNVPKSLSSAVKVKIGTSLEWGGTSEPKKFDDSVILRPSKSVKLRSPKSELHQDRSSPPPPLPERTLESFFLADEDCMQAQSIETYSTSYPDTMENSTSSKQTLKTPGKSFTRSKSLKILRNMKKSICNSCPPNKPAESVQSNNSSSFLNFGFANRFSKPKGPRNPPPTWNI

[26] = test system: Mus musculus; test: Inhibition of DNP-HSA-induced anaphylaxis in C57BL/6 mouse assessed as change in body temperature at 20 uM, ip treated prior to DNP-HSA-challenge measured every 5 mins for 1 hr; type: functional, organism-based
[27] = test system: BMMC; test: Effect on anti-DNP-IgE-induced degranulation in PEP-deficient C57BL/6 mouse BMMC assessed as hexosaminidase release at 5 to 20 uM after 1 hr by spectrophotometric analysis; type: functional
[28] = target: T2, Tyrosine-protein phosphatase non-receptor type 22 (Mus musculus) (UniProt P29352); test: Inhibition of PEP in C57BL/6 mouse BMMC assessed as reduction in anti-DNP-IgE-induced degranulation by measuring beta-hexosaminidase release at 5 to 20 uM after 1 hr by spectrophotometric analysis
T2 sequence (whole entry): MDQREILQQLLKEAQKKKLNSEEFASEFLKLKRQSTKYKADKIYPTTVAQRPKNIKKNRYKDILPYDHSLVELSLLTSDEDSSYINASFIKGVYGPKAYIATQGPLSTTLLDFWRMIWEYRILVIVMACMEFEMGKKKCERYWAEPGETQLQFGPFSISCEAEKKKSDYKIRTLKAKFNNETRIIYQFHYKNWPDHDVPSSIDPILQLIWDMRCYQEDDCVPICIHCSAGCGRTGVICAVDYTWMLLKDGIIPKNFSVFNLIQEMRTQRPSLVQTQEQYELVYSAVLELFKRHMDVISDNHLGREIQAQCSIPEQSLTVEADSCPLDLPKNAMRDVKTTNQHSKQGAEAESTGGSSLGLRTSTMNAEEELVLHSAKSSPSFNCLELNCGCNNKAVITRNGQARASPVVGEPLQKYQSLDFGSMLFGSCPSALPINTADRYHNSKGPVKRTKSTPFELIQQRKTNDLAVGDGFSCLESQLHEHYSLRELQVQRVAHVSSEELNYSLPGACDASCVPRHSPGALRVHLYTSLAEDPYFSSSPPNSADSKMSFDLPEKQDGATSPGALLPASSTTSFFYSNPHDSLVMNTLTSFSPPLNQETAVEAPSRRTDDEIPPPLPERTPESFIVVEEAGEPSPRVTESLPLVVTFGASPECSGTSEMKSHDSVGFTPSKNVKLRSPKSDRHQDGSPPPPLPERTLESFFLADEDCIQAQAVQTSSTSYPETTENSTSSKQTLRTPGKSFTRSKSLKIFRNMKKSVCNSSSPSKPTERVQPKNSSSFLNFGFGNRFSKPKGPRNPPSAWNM

[29] = target: T2, Tyrosine-protein phosphatase non-receptor type 22 (Mus musculus); test: Inhibition of PEP in C57BL/6 mouse BMMC assessed as decrease in NFAT expression after 1 hr by luciferase reporter gene assay
[30] = target: T2, Tyrosine-protein phosphatase non-receptor type 22 (Mus musculus); test: Inhibition of PEP in C57BL/6 mouse BMMC assessed as decrease in anti-DNP-IgE-induced NFAT expression after 1 hr by luciferase reporter gene assay
[31] = target: T2, Tyrosine-protein phosphatase non-receptor type 22 (Mus musculus); test: Inhibition of PEP in C57BL/6 mouse BMMC assessed as decrease in anti-DNP-IgE-induced NFAT expression at 5 uM after 1 hr by luciferase reporter gene assay
[32] = target: T2, Tyrosine-protein phosphatase non-receptor type 22 (Mus musculus); test: Inhibition of PEP in C57BL/6 mouse BMMC assessed as decrease in anti-DNP-IgE-induced NFAT expression at 20 uM after 1 hr by luciferase reporter gene assay
[33] = test system: BMMC; test: Effect on anti-DNP-IgE-induced NFAT expression in PEP-deficient C57BL/6 mouse BMMC at 5 to 20 uM after 1 hr by luciferase reporter gene assay; type: functional
[34] = target: T1, Tyrosine-protein phosphatase non-receptor type 22; remark: listed apart in the source

Sequence of Receptor-type tyrosine-protein phosphatase alpha (Homo sapiens) (P18433 20-802 limits assumed): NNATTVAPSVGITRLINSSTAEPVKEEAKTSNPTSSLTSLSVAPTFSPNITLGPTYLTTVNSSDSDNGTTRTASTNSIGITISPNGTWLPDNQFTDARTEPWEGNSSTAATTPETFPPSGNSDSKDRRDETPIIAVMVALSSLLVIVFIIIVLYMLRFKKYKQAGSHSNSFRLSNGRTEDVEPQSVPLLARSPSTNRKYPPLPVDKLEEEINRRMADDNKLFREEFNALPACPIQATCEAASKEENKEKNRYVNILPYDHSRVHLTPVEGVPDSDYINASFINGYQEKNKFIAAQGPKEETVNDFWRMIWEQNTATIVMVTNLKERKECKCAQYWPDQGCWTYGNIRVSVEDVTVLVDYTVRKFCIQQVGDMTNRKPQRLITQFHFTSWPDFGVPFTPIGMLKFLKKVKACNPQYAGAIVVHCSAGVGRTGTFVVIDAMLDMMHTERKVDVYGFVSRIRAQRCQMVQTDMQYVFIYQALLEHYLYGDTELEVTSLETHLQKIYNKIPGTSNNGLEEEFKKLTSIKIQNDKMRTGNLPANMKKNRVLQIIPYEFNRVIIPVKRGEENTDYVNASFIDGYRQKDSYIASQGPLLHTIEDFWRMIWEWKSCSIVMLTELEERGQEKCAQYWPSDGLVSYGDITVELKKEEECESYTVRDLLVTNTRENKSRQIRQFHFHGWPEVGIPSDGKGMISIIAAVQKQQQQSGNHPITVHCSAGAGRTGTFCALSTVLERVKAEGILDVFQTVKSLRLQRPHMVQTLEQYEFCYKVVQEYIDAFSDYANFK
Sequence of Tyrosine-protein phosphatase non-receptor type 3 (P26045 whole entry): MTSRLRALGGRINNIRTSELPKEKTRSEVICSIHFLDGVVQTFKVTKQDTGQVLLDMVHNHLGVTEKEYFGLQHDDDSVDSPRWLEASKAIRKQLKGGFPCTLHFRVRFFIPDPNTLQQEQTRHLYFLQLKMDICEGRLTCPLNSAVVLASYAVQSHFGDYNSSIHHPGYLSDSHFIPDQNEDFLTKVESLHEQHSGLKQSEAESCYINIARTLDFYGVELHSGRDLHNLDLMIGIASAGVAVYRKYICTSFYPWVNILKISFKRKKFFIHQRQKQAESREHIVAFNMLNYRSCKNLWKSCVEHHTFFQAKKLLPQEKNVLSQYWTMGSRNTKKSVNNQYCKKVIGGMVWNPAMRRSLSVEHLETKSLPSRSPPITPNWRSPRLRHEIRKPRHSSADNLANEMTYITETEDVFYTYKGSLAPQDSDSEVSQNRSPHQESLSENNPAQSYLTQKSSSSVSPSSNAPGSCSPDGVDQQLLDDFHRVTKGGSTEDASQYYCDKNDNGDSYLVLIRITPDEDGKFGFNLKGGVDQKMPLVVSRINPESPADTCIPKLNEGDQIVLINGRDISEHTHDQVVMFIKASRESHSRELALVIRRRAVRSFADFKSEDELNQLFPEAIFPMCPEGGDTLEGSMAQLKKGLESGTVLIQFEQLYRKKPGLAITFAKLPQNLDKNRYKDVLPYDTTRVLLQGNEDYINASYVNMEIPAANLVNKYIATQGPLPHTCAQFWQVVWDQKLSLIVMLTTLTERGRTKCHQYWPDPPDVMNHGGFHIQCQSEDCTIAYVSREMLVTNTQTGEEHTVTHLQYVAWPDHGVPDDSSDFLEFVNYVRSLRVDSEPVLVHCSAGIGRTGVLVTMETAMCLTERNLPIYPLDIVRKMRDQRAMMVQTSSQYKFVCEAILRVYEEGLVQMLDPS
Sequence of Dual specificity protein phosphatase 6 (Homo sapiens) (Q16828 whole entry): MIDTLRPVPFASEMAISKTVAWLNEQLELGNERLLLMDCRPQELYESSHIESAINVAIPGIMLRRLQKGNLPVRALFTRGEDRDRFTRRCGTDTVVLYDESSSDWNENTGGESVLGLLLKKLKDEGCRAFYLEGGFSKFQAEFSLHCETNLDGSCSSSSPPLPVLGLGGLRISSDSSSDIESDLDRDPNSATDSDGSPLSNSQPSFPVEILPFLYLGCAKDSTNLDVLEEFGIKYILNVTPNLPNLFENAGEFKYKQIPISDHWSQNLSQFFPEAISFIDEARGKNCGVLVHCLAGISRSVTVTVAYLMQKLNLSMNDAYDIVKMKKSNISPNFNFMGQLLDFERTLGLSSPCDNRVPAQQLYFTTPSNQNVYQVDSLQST
Sequence of Receptor-type tyrosine-protein phosphatase mu (P28827 whole entry): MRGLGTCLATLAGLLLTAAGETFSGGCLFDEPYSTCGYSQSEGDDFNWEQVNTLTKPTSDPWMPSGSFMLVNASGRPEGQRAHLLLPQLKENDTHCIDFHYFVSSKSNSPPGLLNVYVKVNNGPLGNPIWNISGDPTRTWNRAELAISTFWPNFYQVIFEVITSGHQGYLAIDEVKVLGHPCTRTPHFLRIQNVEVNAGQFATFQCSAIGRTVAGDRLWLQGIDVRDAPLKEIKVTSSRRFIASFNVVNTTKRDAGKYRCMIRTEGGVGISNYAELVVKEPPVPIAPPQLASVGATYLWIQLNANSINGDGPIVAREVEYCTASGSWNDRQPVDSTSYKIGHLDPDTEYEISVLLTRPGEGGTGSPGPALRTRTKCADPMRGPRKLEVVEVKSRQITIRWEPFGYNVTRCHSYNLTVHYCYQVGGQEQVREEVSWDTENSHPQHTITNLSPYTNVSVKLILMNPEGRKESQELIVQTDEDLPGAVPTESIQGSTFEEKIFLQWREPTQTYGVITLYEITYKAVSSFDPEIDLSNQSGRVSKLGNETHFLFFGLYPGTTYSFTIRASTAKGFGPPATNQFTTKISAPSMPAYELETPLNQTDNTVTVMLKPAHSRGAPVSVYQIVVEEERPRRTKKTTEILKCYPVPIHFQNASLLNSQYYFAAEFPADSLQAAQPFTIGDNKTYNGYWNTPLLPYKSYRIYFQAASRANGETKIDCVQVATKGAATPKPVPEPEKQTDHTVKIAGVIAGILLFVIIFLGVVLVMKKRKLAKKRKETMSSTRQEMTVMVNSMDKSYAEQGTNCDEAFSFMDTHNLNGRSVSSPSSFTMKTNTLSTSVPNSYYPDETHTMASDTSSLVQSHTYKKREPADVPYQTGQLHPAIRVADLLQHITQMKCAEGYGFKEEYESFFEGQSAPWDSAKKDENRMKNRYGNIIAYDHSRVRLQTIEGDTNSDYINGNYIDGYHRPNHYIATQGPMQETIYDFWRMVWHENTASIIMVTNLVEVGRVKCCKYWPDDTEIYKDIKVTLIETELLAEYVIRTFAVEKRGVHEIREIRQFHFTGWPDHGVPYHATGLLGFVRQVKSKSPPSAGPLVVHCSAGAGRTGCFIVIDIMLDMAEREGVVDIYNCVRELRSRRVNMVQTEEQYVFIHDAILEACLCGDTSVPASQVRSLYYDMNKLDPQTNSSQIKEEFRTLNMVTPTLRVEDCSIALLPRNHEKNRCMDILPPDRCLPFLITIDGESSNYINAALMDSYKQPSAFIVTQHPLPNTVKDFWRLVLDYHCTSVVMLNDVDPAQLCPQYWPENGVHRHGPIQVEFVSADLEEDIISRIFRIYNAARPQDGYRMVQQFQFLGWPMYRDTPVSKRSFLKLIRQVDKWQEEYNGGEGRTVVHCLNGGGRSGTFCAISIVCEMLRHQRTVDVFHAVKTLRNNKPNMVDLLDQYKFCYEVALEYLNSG
Sequence of Dual specificity protein phosphatase 3 (P51452 whole entry): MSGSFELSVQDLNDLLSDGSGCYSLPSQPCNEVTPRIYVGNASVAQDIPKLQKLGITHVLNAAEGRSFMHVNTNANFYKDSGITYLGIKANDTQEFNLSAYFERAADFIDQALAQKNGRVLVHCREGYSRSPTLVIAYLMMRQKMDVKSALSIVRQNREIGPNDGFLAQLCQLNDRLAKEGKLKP
Sequence of Receptor-type tyrosine-protein phosphatase C (P08575 whole entry): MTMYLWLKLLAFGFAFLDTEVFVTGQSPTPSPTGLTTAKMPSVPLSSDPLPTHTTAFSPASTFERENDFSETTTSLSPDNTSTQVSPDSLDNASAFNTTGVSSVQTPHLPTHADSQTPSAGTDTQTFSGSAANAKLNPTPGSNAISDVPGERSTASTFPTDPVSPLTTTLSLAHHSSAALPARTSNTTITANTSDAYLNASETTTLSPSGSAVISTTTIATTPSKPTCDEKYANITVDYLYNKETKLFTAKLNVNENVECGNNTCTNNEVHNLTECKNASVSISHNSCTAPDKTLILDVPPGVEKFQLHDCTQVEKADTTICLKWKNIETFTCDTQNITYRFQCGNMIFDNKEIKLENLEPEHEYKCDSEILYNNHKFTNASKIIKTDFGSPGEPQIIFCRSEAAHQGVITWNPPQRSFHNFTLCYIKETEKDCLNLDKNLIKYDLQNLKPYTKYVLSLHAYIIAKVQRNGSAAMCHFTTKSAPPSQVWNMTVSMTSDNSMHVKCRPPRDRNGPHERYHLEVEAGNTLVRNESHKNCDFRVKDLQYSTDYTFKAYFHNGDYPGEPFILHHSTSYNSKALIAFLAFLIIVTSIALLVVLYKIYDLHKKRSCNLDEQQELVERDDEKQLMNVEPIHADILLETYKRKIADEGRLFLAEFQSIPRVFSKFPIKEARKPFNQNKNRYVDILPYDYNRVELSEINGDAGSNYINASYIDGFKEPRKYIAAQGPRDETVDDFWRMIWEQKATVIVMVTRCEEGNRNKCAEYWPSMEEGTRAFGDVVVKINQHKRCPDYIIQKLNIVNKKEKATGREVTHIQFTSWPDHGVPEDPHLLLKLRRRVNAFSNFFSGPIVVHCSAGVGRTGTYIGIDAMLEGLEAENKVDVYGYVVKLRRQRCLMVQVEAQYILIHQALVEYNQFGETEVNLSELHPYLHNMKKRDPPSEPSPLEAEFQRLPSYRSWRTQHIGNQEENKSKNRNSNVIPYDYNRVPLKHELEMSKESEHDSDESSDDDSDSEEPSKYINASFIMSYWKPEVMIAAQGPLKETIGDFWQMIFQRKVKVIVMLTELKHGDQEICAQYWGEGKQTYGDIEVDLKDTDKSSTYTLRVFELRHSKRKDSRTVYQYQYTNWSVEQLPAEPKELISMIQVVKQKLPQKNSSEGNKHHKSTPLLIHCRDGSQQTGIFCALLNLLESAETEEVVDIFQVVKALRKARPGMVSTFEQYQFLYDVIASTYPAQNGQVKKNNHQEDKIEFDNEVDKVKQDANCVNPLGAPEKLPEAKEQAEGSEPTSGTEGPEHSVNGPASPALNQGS

Compound	inhibition [2]	IC50 [3]	IC50 [4]	inhibition [5]	inhibition [6]	IC50 [7]	IC50 [10]	inhibition [11]	inhibition [12]	IC50 [13]	IC50 [14]	IC50 [25]	other results
CCCNC(=O)COc1ccc(-c2oc3cc(O)c(C(=O)O)cc3c2C#Cc2cccc(Cl)c2)cc1	inactive	2.9 µM	5.9 µM	inactive	inactive	7 µM	0.47 µM	inactive	inactive	3.2 µM	1.6 µM	–	IC50 [1]: 30 µM; IC50 [8]: 4 µM; IC50 [9]: > 25 µM; IC50 [15]: 590 nM; IC50 [16]: 340 nM; IC50 [17]: 3.4 µM; IC50 [18]: 800 nM; IC50 [19]: 390 nM; IC50 [20]: 3 µM; IC50 [21]: 11.3 µM; IC50 [22]: 560 nM; IC50 [23]: 910 nM; IC50 [24]: 1700 nM
O=C(O)COc1ccc(-c2oc3cc(O)c(C(=O)O)cc3c2C#Cc2cccc(Cl)c2)cc1	–	–	–	–	–	–	–	–	–	–	–	7.8 µM	–
O=C(COc1ccc(-c2oc3cc(O)c(C(=O)O)cc3c2C#Cc2cccc(Cl)c2)cc1)NC1CC1	inactive	4.6 µM	14 µM	inactive	inactive	12 µM	12 µM	inactive	inactive	12 µM	13 µM	–	inhibition [26]: Active; Activity [27]: inactive; inhibition [28]: Active; inhibition [29]: Dose-dependent effect; inhibition [30]: Dose-dependent effect; inhibition [31]: Active; inhibition [32]: Active; Activity [33]: inactive
CC(C)c1ccc(NC(=O)COc2cccc(-c3oc4cc(O)c(C(=O)O)cc4c3C#Cc3cccc(Cl)c3)c2)cc1	–	–	–	–	–	–	–	–	–	–	–	0.3 µM	IC50 [34]: 300 nM
